Test results published in the pKa sets of Baltruschat and Czodrowski (2020).

details: acidic group

Compound | pKa
Cc1ccc(NC(=S)c2ccccc2)cc1 | 10.8
O=C(O)[C@@H]1CCCC[C@@H]1O | 4.8
Oc1ccc(O)c(Br)c1 | 8.67
c1ncc2[nH]cnc2n1 | 8.92
CN(C)c1ccc(C(=S)Nc2ccccc2)cc1 | 11.2
O=c1cccc([O-])cc1O | 9.52
O=C1NC(=O)C(=NO)C(=O)N1 | 4.58
Cc1cccc(C(=O)O)c1C | 3.73
OCc1cccc(CO)c1O | 9.66
O=C(O)c1cccc[nH+]1 | 1.25
CO[n+]1ccccc1N | 12.4
CNC(=N)CCNS(=O)(=O)c1ccc(C)cc1 | 11.9
C[n+]1cccc2c(S)cccc21 | 3.22
NC(=O)CC(=O)c1ccncc1 | 7.91
Nc1nnc(S(N)(=O)=O)s1 | 7.69
CNC(=O)/C=C(/C)C(=O)O | 3.23
Nc1c(C(=O)O)[nH+]cn1[C@H]1O[C@@H](CO)[C@H](O)[C@@H]1O | 2.9
C=C(C)[C@@H]1C[NH2+][C@H](C(=O)[O-])[C@@H]1CC(=O)O | 4.58
COc1ccc2cc(O)ccc2c1 | 9.64
Cc1ccccc1NCCS | 9.6
OCc1nc2ccccc2[nH]1 | 12.1

Compound | pKa
Oc1onc2c1CC[NH+](Cc1ccccc1)CC2 | 3.3
CCCCNc1ncnc2[nH]ncc12 | 11.2
CC(C)Cc1cnc(CC(C)C)c(O)[nH+]1 | 1.7
O=C1COC(=O)C1Br (configuration not stated) | 2.23
CC(C)Oc1ccc(C(=O)O)cc1 | 4.57
N#CC(C#N)C(c1ccccc1)C(C#N)C#N | 6.19
O=C1COC(=O)C1 | 3.76
Cc1ccc(C(=O)Oc2ccccc2)c(O)c1 | 9.44
Cc1ccc(SC2CC(=O)N2)cc1 (configuration not stated) | 13.4
CC(=O)N(C)O | 8.73
CC1CC(C(=O)O)=[N+]([O-])C1(C)C (configuration not stated) | 2.85
S=c1[nH]c2ccccc2o1 | 6.33
O=[N+]([O-])c1ccc(C(=S)Nc2ccccc2)cc1 | 9.81
O=C(O)C1(C(=O)O)CC1 | 1.92
C[N+]1(CCCCCC(=O)O)CCCCC1 | 4.44
Cc1cc(Cl)ccc1C(=O)O | 3.75
COO | 11.5
O=C(O)C[NH2+]CCc1nnn[nH]1 | 3.28
Cc1ccc([C@H]2C[C@@H]2C(=O)O)cc1 | 4.6
O=C1NC(=O)c2ccccc21 | 9.91
O=C(O)c1cc2ccccc2o1 | 2.84

Compound | pKa
CC(=O)[C@@H]1C[C@@H]1C(=O)O | 4.19
Nc1nccc2c1[nH+]cn2CCOCP(=O)(O)O | 1.23
O=C1[N-]C(=S)NC(=O)C1C1C=CCCC1 (configuration not stated) | 11.3
O=[N+]([O-])c1ccc(S(=O)(=O)NCc2ccccc2)cc1 | 10.1
O=C(CC(=O)c1ccccc1)Nc1ccccc1 | 9.54
Cc1cc(C)c(O)c([N+](=O)[O-])c1 | 7.98
O=[N+]([O-])c1cccc2c[n+](CCCO)ccc12 | 10.4
O=S(=O)([O-])c1cc(O)cc2[nH]ncc12 | 8.85
Cc1ccc(O)cc1C(=O)O | 3.92
CC(C)c1ccc(Br)c(O)c(=O)c1 | 6.28
O=CC1=CC=CC1 | 7.4
NC(=O)C[C@H](N)C(N)=O | 7
Oc1ccc2cc(Cl)ccc2c1 | 9.31
Cc1c(Cn2cc[nH+]c2)n(C)c2ccc(C(=O)O)cc12 | 4.08
CCOc1ccc(C(=O)NC(=S)N(CC)CC)cc1 | 8.83
CC(C(N)=O)S(=O)(=O)NC(N)=O (configuration not stated) | 5.21
C[NH+](C)Cc1cccc(NC(=O)/C=N/O)c1 | 8.28
Cc1[nH]c(-c2ccccc2S)[nH+]c1C | 3.9
O=C1CC(=O)C(=O)C1 | 3
CC[NH+](CC)CCCNC(=O)/C=N/O | 8.75
CC1(C)CC(=O)C(C=O)C(=O)C1 | 3.65

same assay, conditions: basic group

Compound | pKa
NC(=O)CCc1cccnc1 | 5.21
c1ncc2[nH]cnc2n1 | 2.45
CCNCc1ccccc1 | 9.75
[NH3+]C(CC(=O)[O-])c1ccccn1 (configuration not stated) | 2.94
CC(O)[C@@H]1CN[C@H](C(=O)[O-])[C@H]1CC(=O)[O-] (some centres not stated) | 10.1
CCN(CC)CCS(=O)(=O)c1ccc(OC)c(OC)c1OC | 7.41
CCO[Si](C)(CN)OCC | 9.19
C1CCC(N2CCCC2)CC1 | 10.7
Cc1cc(-c2cccc[nH+]2)nn1C | -1.6
CCCC(=N)OCC | 7.08
COc1c(C)ncc(CO)c1C=O | 4.75
O=C(O)c1cccc[nH+]1 | -0.84
CNC(=N)CCNS(=O)(=O)c1ccc(C)cc1 | 10
OC[C@H]1CCN2CCC[C@@H]12 | 10.9
Nc1ccc2ncncc2c1 | 3.29
OCCN(CCO)CCc1nnn[nH]1 | 9.2
Cc1ccnc([S-])[nH+]1 | 2.2
Cc1ccc(C[NH3+])cc1N | 4.26
OCc1nc2ccccc2[nH]1 | 4.82
C=CCN1CCOCC1 | 7.05
CC1=C(CC(C)NCC(O)c2ccccc2)CCC1(C)C (configuration not stated) | 8.84
CCCCCCCCCCCCN(CCO)CC(C)O (configuration not stated) | 6.5

Compound | pKa
CCCCNc1ncnc2[nH]ncc12 | 4.67
N/N=C/c1ncnc2nc[nH]c12 | 9.2
Nc1cn[nH]c1 | 5.57
Cc1nccc2c1[nH]c1ccc([N+](=O)[O-])cc12 | 6.24
CCCCCCCCN(CC(O)CC)CC(O)CC (configuration not stated) | 7.5
CN(C)CC[NH+](C)C | 6.04
C#CC(CC)(CC)N(CC)C(C)C | 8.2
CN(C)Cc1cc([N+](=O)[O-])ccc1[O-] | 9.93
c1ccc(-c2ccc3nc(CN4CCOCC4)cn3n2)cc1 | 6.25
Cc1ccc2ccc(C)nc2c1 | 5.01
c1ccc(-c2cc3cccnc3c3ncccc23)cc1 | 4.72
CC1=C(CC(C)NCC(O)c2ccc(N)cc2)CCC1(C)C (configuration not stated) | 9.01
CN1CCCCN1C | 6.66
C1CNCNC1 | 8.84
CN(C)CCNCCN(C)C | 9.59
O=C1C[C@H]2OCC(S(=O)(=O)[O-])=C3CN4CC[C@@]56c7ccccc7N1[C@@H]5[C@@H]2[C@@H]3C[C@@H]46 | 7.54
CS(=O)Cc1ccccn1 (configuration not stated) | 3.1
c1ccc(-c2nc3ccccc3s2)cc1 | 0.7
Nc1nccc2c1[nH+]cn2CCOCP(=O)(O)O | 0.15
Cc1noc(C)c1C | -1
[NH3+]c1ccc(-c2cnc(-c3ccccc3)o2)cc1 | 0.5
CCN1CCC[C@@H]1CNC(=O)c1c([O-])c(Br)cc(Br)c1OC | 9.12

Compound | pKa
N/C(CCNc1ccccc1)=N\O | 5.35
Cc1ccc(C2CCCN2)cc1 (configuration not stated) | 9.99
COc1cc2c(cc1OC)C(=O)Cc1ccc3c(c1CN(C)CC2)OCO3 | 8.09
Cc1cnc(C)cn1 | 1.95
CC(C)N(c1ccccc1)C(C)C | 6.19
CC1[C@H](N)[C@H]1[NH3+] (some centres not stated) | 5.9
NCCCCBr | 10
c1ccc2c(c1)NCCN2 | 4.84
C#C[C@]1(O)C[C@H](C)N[C@@H]2CCCC[C@H]21 | 9.63
CN1C(=N)C(C)(C)c2ccccc21 | 9.25
C[C@H](N)[C@H](O)c1ccccc1 | 8.81
Cc1ccc(-c2cnc(-c3ccc(Cl)cc3)o2)cc1 | 0.58
c1ccc2c(c1)nnc1ccccc12 | 2.2
Nc1ccc([I+]c2ccccc2)cc1 | 1.66
O=C([O-])c1cccnc1 | 4.83
Brc1ccccn1 | 0.9
Nc1cccc(-c2ccccn2)n1 | 5.8
CC(=O)N(C)c1cccnc1 | 3.52
Cc1ccc(N)c(C)c1 | 4.75
CC(C)CN(C)c1ccccc1 | 5.2
